The conditions of data set [1]: cited from earlier work.
Data set [2] concerns Cc1cc2nc3c(=O)[nH]c(=O)nc-3n(C[C@H](O)[C@H](O)[C@H](O)COP(=O)(O)OP(=O)(O)OC[C@H]3O[C@@H](n4cnc5c(N)ncnc54)[C@H](O)[C@@H]3O)c2cc1C. Description: purified protein, by the assay type. It is filed as biochemical, Paracoccus denitrificans. Particulars: other: NADH as donor; pH 7.4; 30.0 °C.
Experimental: (§1) The kinetic parameters ± standard error were determined by fitting the data to the appropriate kinetic equation using nonlinear regression and the program Microcal Origin (version 5.0).
(§2) Measurements were performed at 30 °C with 61 nM enzyme in 25 mM Tris-HCl buffer (pH 7.4).
Data set [3] relates to Cc1cc2nc3c(=O)[nH]c(=O)nc-3n(C[C@H](O)[C@H](O)[C@H](O)CO)c2cc1C. Put plainly: purified protein, by the assay type. It is filed as biochemical, Paracoccus denitrificans. The following applies: other: NADH as donor; pH 7.4; 30.0 °C.
Experimental: as §1, §2
For data set [4], the system named is Cc1cc2nc3c(=O)[nH]c(=O)nc-3n(C[C@H](O)[C@H](O)[C@H](O)COP(=O)(O)O)c2cc1C. Description: purified protein, by the assay type. It is filed as biochemical, Paracoccus denitrificans. Particulars: other: NADH as donor.
Experimental: as §1, §2
Data set [5] concerns FerBHis6. Put plainly: Stopped-flow reduction of enzyme-bound flavin cofactor by NADH. It is filed as biochemical, Paracoccus denitrificans. The method, then: Stopped-flow spectrophotometry was performed on a SFM-3000 (Bio-Logic) stopped-flow system equipped with a 0.8- × 0.8-mm cuvette (FC-08). The temperature was kept constant at 10 °C with a thermostating water bath. Six measurements were averaged for each sample. […] Results from the stopped-flow experiments were analyzed in the Bio-Kine software (BioLogic).

The target of data set [6] is FerB (ferric reductase B, NAD(P)H:acceptor oxidoreductase) of Paracoccus denitrificans with a C-terminal six-histidine tag (Paracoccus denitrificans) (UniProt P84469). Description: SAXS; 5.0 mg/mL protein, 290.15 K, buffer of the last purification step; dimer to tetramer; volume fractions by OLIGOMER
For data set [7] the target is unchanged. Description: SEC; Superose 12, 0.1 mL of 0.5 mg/mL protein, 25 mM Tris-HCl pH 7.4, 0.5 mL/min, calibrated with marker proteins; holoenzyme.
Data set [8] shares this target. Put plainly: SAXS; […] protein, 290.15 K, buffer of the last purification step; dimer to tetramer; volume fractions by OLIGOMER
Data set [9] shares this target. Put plainly: SAXS; 1.25 mg/mL protein, 290.15 K, buffer of the last purification step; dimer to tetramer; volume fractions by OLIGOMER
For data set [10], the target named is FerBHis6 wild-type and mutant variants. Description: Steady-state kinetics of NADH oxidation with UQ-0 as acceptor (quinone reductase activity). It is filed as biochemical, Paracoccus denitrificans. Particulars: UQ-0 100 µM, pH 7.4, 30 °C.
Experimental: as §1
Data set [11] has as its target T1, FerBHis6-R95A (Paracoccus denitrificans, UniProt A1B9E3, R95A).
T1 sequence (A1B9E3 1-182 R95A): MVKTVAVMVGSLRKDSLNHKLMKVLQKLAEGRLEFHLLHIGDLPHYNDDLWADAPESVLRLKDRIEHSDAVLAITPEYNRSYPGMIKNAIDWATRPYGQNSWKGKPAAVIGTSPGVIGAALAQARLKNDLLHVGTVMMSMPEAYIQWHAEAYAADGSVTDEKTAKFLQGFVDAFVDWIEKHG
Put plainly: NADH:flavin oxidoreductase initial-velocity kinetics of R95A mutant. It is filed as biochemical.
Experimental: as §1, §2

Data set [12] is described as follows: FMN self-association in aqueous solution by 1H NMR chemical shift (literature). The following applies: order of magnitude, from association constant of ref 46. It is filed as physicochemical.
Details of data set [13]: method as in PMID 17029888. The following applies: aqueous solutions; cited from earlier work.
Data set [14] has as its system EmoB of Mesorhizobium sp. bacterium BNC1. The following applies: cited from earlier work.
Data set [15] has as its target apoFerBHis6 (Paracoccus denitrificans, UniProt A1B9E3). Put plainly: Fluorescence titration of free flavin by apoenzyme (dissociation constants). It is filed as binding. The following applies: for Kd: 25 mM Tris-HCl, pH 7.4, 25 °C, read-out: Kd of apoFerBHis6-flavin complex. The method, then:
Dissociation constants of apoenzyme-flavin complexes were determined from fluorescence titration with excitation at 450 nm by adding of constant amount of the wild-type and mutant variants of apoFerBHis6 into 25 mM Tris-HCl buffer (pH 7.4) with 100 nM FMN or riboflavin. Decreasing emission intensities at 519 nm were recorded on Luminescence Spectrotometer LS-50B (Perkin-Elmer). Series of different concentrations of FMN standard was used for setting of a calibration curve on fluorescence intensity. The dissociation constants Kd were calculated according to [22] and converted to the binding Gibbs energy changes ΔGb = -RTln (1/Kd) (where R, gas constant, T, absolute temperature), from which the variation of Gibbs energy due to mutation (ΔΔGb) was computed as the difference in binding energy between mutant and wild-type enzyme (ΔΔGb = ΔGb(mut) - ΔGb(wt)).

In data set [16] the test system is B. subtilis YhdA. On the set-up: method as in PMID 16752898. The following applies: cited from earlier work.
Data set [17] concerns WrbA protein of E. coli. Also on record: method as in PMID 9694845. Particulars: cited from earlier work.
Data set [18] can be described thus: Standard redox potential by xanthine/xanthine oxidase method of Massey with reference dye. It is filed as physicochemical. Particulars: 50 µM free FMN, pH 7.0.
The test system of data set [19] is FerB. Put plainly: Activity toward external FMN, wild-type enzyme. It is filed as biochemical, Paracoccus denitrificans.
Experimental: as §1

These results are taken from PMC4015959, “The Structural and Functional Basis of Catalysis Mediated by NAD(P)H:acceptor Oxidoreductase (FerB) of Paracoccus denitrificans” (PLoS ONE, 2014).

Several values for one entry are separate records, joined by “and”; a condition that tells them apart may be missing. Equal entries are not always repeated. A value given as a limit tells only on which side of the number the result lay.

For the molecule `O=C1c2ccccc2C(=O)c2cc(S(=O)(=O)O)ccc21` [anthraquinone-2-sulfonate], the “E° ´ of reference dye” value in [1] was −225 mV.

Take “FerBHis6-R95A (Paracoccus denitrificans PD1222; R95A)”: the Km turned out to be 95 ± 7 µM in data set [2]; 59 ± 12 µM in data set [3]; 111 ± 15 µM in data set [4] (pH 7.4, 30.0 °C). Besides, the kcat in [2] came to 38 ± 1 s⁻¹; in data set [3], 75 ± 10 s⁻¹; in data set [4] (30 °C, 25 mM Tris-HCl pH 7.4), 50 ± 5 s⁻¹.

As for `COC1=C(OC)C(=O)C(C)=CC1=O` [UQ-0, 2,3-dimethoxy-5-methyl-1,4-bezoquinone], the “time to complete oxidation of dithionite pre-reduced flavin cofactor” value in [5] (200 µM UQ-0, within stopped-flow dead time, all proteins) was no more than 0.4 ms.

For the molecule `O=C1/C(=C2\Nc3ccc(S(=O)(=O)[O-])cc3C2=O)Nc2ccc(S(=O)(=O)[O-])cc21.[Na+].[Na+]` [indigo carmine], the “E° ´ of reference dye” value in data set [1] was −125 mV.

Take “FerB (ferric reductase B, NAD(P)H:acceptor oxidoreductase) of Paracoccus denitrificans with a C-terminal six-histidine tag (from UniProt P84469 1-27) (enzyme)”: the values for the partial volume fraction of dimer in data set [6], in data set [8] and in data set [9] were 9%, 13% and 34%, respectively. Further, the results for the partial volume fraction of tetramer in [6], in data set [8] and in data set [9] were 91%, 87% and 66%, respectively. For the same molecule, the stoichiometry N in data set [7] came out at 1.88 subunits.

Consider `Nc1ccc2nc3ccc(N)cc3[n+](-c3ccccc3)c2c1.[Cl-]` [phenosafranin], for which the “E° ´ of reference dye” value in data set [1] was −252 mV.

For the molecule `[2H][C@@H]1C=CN(C2OC(COP(=O)(O)OP(=O)(O)OCC3OC(n4cnc5c(N)ncnc54)C(O)C3O)C(O)C2O)C=C1C(N)=O` (stereo partly drawn) [[4R-^2H]NADH], the “kinetic isotope effect for enzyme-catalyzed UQ-0 reduction” value in [10] stood at 1.07±0.13.

For the molecule `NC(=O)C1=CN([C@@H]2O[C@H](COP(=O)(O)OP(=O)(O)OC[C@H]3O[C@@H](n4cnc5c(N)ncnc54)[C@H](O)[C@@H]3O)[C@@H](O)[C@H]2O)C=CC1` [NADH], in data set [11] (FMN as acceptor, bisubstrate ping-pong fit), the “Michaelis constant for NADH” value came out at 33 ± 7 µM. In addition, the “NADH concentration giving half maximal effect on kobs” value in [5] (30 µM FerBHis6, 1–5000 µM NADH, 10 °C, anaerobic) is 6.4 ± 1.0 µM. Also, the “pH dependence of kobs” value in data set [5] (5 mM NADH, pH interval 3–9) is reported as “did not depend on pH”. Further, in [5] (10 °C, anaerobic), the “limit of kobs (apparent electron-transfer rate constant for FerB-NADH complex)” value was 147.0 ± 0.4 s⁻¹ and ~140 s⁻¹.

Turning to `[2H]C1C=CN(C2OC(COP(=O)(O)OP(=O)(O)OCC3OC(n4cnc5c(N)ncnc54)C(O)C3O)C(O)C2O)C=C1C(N)=O` (centres unmarked) [deuterated NADH], the “kinetic isotope effect for enzyme-catalyzed UQ-0 reduction” value in data set [10] was “about 6”.

Take `[2H][C@H]1C=CN(C2OC(COP(=O)(O)OP(=O)(O)OCC3OC(n4cnc5c(N)ncnc54)C(O)C3O)C(O)C2O)C=C1C(N)=O` (stereo partly drawn) [[4S-^2H]NADH]: the “kinetic isotope effect for enzyme-catalyzed UQ-0 reduction” value in [10] is listed as 5.45±0.21.

On to `Cc1cc2nc3c(=O)[nH]c(=O)nc-3n(C[C@H](O)[C@H](O)[C@H](O)COP(=O)(O)O)c2cc1C` [FMN, flavin mononucleotide], for which the “expected dissociation constant of self-association” value in data set [12] was roughly 10 mM. In addition, the self-association constant in data set [13] was 20 to 100 M⁻¹. The “kcat of FMN reduction” value in data set [14] (calculated from Vmax using subunit mass 21 412 Da) is 397 s⁻¹; in data set [16] it was 60 to 70 s⁻¹. The Vmax in [14] is 1111 µmol/min/mg. Moreover, the Kd in data set [15] was 0.027 ± 0.002 µM; in [17], 2 µM. In addition, the “Gibbs binding energy coming from the phosphate” value in [15] (calculated from Kd values of FMN and riboflavin) is -3.25 kcal/mol. For the same molecule, the “total Gibbs binding energy” value in [15] (calculated from experimental Kd) was -10.3 kcal/mol. In data set [1] (free FMN), the “E° ´ published value” is −207 mV. In data set [18], the “E° ´ of free flavin” value is on record as −212 mV. For the same molecule, the results for the “ratio of kcat toward external FMN to kcat toward UQ-0” value in [19] and in data set [11] (R95A mutation) were “about 0.006” and 0.32, respectively. Also, the “kcat (catalytic constant) of flavin reduction” value in [11] (NADH as donor, 30 °C, 25 mM Tris-HCl pH 7.4) came to 50 s⁻¹. Also, the “kinetic solvent isotope effect kobs(H2O)/kobs(D2O)” value in data set [5] (99% deuterium oxide, buffer pH 6.8) was 1.9.

Turning to `Cc1cc2nc3c(=O)[nH]c(=O)nc-3n(C[C@H](O)[C@H](O)[C@H](O)CO)c2cc1C` [riboflavin], the Kd in data set [15] is 6.58 µM and 6.6 µM. Also, in data set [15] (riboflavin vs FMN), the “increase in Kd relative to FMN” value was determined as 244 fold.
